# Patent US20260200928A1, “THERAPEUTIC COMPOUNDS” (Sanofi, priority 2022, published 2026)
# Target: T1, human IL-17A (Homo sapiens, UniProt Q16552)
# T1 construct: purchased R&D Systems 7955-IL/CF
# T1 sequence (Q16552 24-155): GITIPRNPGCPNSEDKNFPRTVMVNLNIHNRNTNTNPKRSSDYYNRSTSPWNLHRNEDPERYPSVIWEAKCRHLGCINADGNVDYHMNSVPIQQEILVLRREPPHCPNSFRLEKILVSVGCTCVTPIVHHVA
# Assay: IL-17A AlphaLISA competition assay (block of IL-17A binding to its receptor IL-17RA)
# Conditions: mean IC50 (n≥2), block of IL-17A binding to IL-17RA
# Procedure, shortened: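 Human recombinant IL-17A (7.5 nM stock) pre-incubated 30 min at RT with compound, then IL-17RA/Fc (5 nM stock) added for 90 min; AlphaLISA read with anti-Fc acceptor beads, biotinylated anti-IL-17A antibody (5 nM) and streptavidin donor beads (3 h, dark). IC50 from 4-parameter logistic fit, normalised to DMSO and 4 μM reference inhibitor; n≥2.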
row,Molecule,IC50 [µM]
1,"Cn1nccc1C(=O)NC(C(=O)Nc1cc(Cc2cccc(=O)n2C)ccn1)C1CCC(F)(F)CC1 (centres unmarked) [Example 37, N-(1-(4,4-difluorocyclohexyl)-2-((4-((1-methyl-6-oxo-1,6-dihydropyridin-2-yl)methyl)pyridin-2-yl)amino)-2-oxoethyl)-1-methyl-1H-pyrazole-5-carboxamide]",25.4
2,"COCC(c1ccnc(NC(=O)[C@@H](NC(=O)c2nocc2C)[C@H]2CC[C@H](C)CC2)c1)N1C[C@@H](C(F)(F)F)NC1=O (single isomer, unassigned) [Example 120]",0.018
3,"C[C@@H](OC(C)(C)C)[C@H](NC(=O)OCc1ccccc1)C(=O)Nc1cc(CN2C[C@@H](C(F)(F)F)NC2=O)ccn1 [Example 101, benzyl ((2S,3R)-3-(tert-butoxy)-1-oxo-1-((4-(((S)-2-oxo-4-(trifluoromethyl)imidazolidin-1-yl)methyl)pyridin-2-yl)amino)butan-2-yl)carbamate]",5.39
4,"COCC(c1ccnc(NC(=O)C(NC(=O)C(F)c2ccccc2)C2CCC(C)CC2)c1)N1CC(C(F)(F)F)NC1=O [Example 254, 2-fluoro-N-((S)-2-((4-((S)-2-methoxy-1-((S)-2-oxo-4-(trifluoromethyl)-imidazolidin-1-yl)ethyl)pyridin-2-yl)amino)-1-((1r,4S)-4-methylcyclohexyl)-2-oxoethyl)-2-phenylacetamide]",0.077
5,Cc1cnn(C)c1Cc1ccnc(NC(=O)C(NC(=O)c2ccnn2C)C2CCC(F)(F)CC2)c1 (centres unmarked) [Example 53],3.88
6,"CC(C)(C)OC(=O)N1CCn2c(ccc2C(=O)N[C@H](C(=O)Nc2cc(CN3C[C@@H](C(F)(F)F)NC3=O)ccn2)[C@H]2CC[C@H](C)CC2)C1 [Example 7, Tert-butyl 6-(((S)-1-((1r,4S)-4-methylcyclohexyl)-2-oxo-2-((4-(((S)-2-oxo-4-(trifluoromethyl)imidazolidin-1-yl)methyl)pyridin-2-yl)amino)ethyl)-carbamoyl)-3,4-dihydropyrrolo[1,2-a]pyrazine-2(1H)-carboxylate]",0.407
7,"COCC(c1ccnc(NC(=O)[C@@H](NC(=O)c2ncsc2C)[C@H]2CC[C@H](C)CC2)c1)N1C[C@@H](C(F)(F)F)NC1=O (single isomer, unassigned) [Example 91]",0.119
8,"COC[C@H](c1ccnc(NC(=O)C(NC(=O)c2nonc2OCC(F)(F)F)C2CCC(F)CC2)c1)N1C[C@@H](C(F)(F)F)NC1=O (single isomer, unassigned) [Example 282]",0.103
9,"COC[C@H](c1ccnc(NC(=O)C(NC(=O)c2nonc2C2CC2)C2CCC(C)(F)CC2)c1)N1C[C@@H](C(F)(F)F)NC1=O (single isomer, unassigned) [Example 297]",4.8
10,"Cc1cc(COC(=O)N[C@H](C(=O)Nc2cc(CN3C[C@@H](C(F)(F)F)NC3=O)ccn2)C2CCC(F)(F)CC2)nn1C [Example 60, (1,5-Dimethyl-1H-pyrazol-3-yl)methyl ((S)-1-(4,4-difluorocyclohexyl)-2-oxo-2-((4-(((S)-2-oxo-4-(trifluoromethyl)imidazolidin-1-yl)methyl)pyridin-2-yl)amino)ethyl)carbamate]",3.75
11,"CC1CCC(C(NC(=O)c2ccnn2C)C(=O)Nc2cc(C(C)N3CC(C(F)(F)F)NC3=O)ccn2)CC1 [Example 240, 1-methyl-N-((S)-1-((1r,4S)-4-methylcyclohexyl)-2-oxo-2-((4-((R)-1-((S)-2-oxo-4-(trifluoromethyl)imidazolidin-1-yl)ethyl)pyridin-2-yl)amino)ethyl)-1H-pyrazole-5-carboxamide]",0.016
12,"CCn1nccc1C(=O)NC(C(=O)Nc1cc(C[C@H]2C[C@@H](C(F)(F)F)NC2=O)ccn1)C(C1CC1)C1CC1 (stereo in doubt) [Example 230, N—((S)-1,1-dicyclopropyl-3-oxo-3-((4-(((3S,5S)-2-oxo-5-(trifluoromethyl)-pyrrolidin-3-yl)methyl)pyridin-2-yl)amino)propan-2-yl)-1-ethyl-1H-pyrazole-5-carboxamide]",0.096
13,"COCC(c1ccnc(NC(=O)[C@@H](NC(=O)c2conc2C2CC2)[C@H]2CC[C@H](C)CC2)c1)N1C[C@@H](C(F)(F)F)NC1=O (single isomer, unassigned) [Example 126]",0.021
14,"Cn1nccc1C(=O)N[C@H](C(=O)Nc1cc(C[C@H]2C[C@@H](C(F)(F)F)NC2=O)ccn1)C1CCC(F)(F)CC1 [Example 224, N-((S)-1-(4,4-difluorocyclohexyl)-2-oxo-2-((4-(((3S,5S)-2-oxo-5-(trifluoromethyl)pyrrolidin-3-yl)methyl)pyridin-2-yl)amino)ethyl)-1-methyl-1H-pyrazole-5-carboxamide]",0.135
15,"Cc1nonc1COC(=O)N[C@H](C(=O)Nc1cc(CN2C[C@@H](C(F)(F)F)NC2=O)ccn1)C1CCC(F)(F)CC1 [Example 70, (4-Methyl-1,2,5-oxadiazol-3-yl)methyl ((S)-1-(4,4-difluorocyclohexyl)-2-oxo-2-((4-(((S)-2-oxo-4-(trifluoromethyl)imidazolidin-1-yl)methyl)pyridin-2-yl)amino)ethyl)carbamate]",8
16,"COC[C@H](c1ccnc(NC(=O)[C@H](COC(C)(C)C(F)(F)F)NC(=O)c2nonc2C2CC2)c1)N1C[C@@H](C(F)(F)F)NC1=O [Example 269, 4-cyclopropyl-N-((S)-1-((4-((S)-2-methoxy-1-((S)-2-oxo-4-(trifluoromethyl)imidazolidin-1-yl)ethyl)pyridin-2-yl)amino)-1-oxo-3-((1,1,1-trifluoro-2-methylpropan-2-yl)oxy)propan-2-yl)-1,2,5-oxadiazole-3-carboxamide]",0.01
17,1-isopropyl-N-((1S)-2-((4-((S)-2-methoxy-1-((S)-2-oxo-4-(trifluoromethyl)imidazolidin-1-yl)ethyl)pyridin-2-yl)amino)-2-oxo-1-(4-(trifluoromethyl)cyclohexyl)ethyl)-1H-pyrazole-5-carboxamide [Example 303],0.046
18,"CC(c1ccnc(NC(=O)[C@@H](NC(=O)c2nonc2C2CC2)C2CCC(F)(F)CC2)c1)N1C[C@@H](C(F)(F)F)NC1=O (single isomer, unassigned) [Example 170, 4-cyclopropyl-N-((S)-1-(4,4-difluorocyclohexyl)-2-oxo-2-((4-((R or S)-1-((S)-2-oxo-4-(trifluoromethyl)imidazolidin-1-yl)ethyl)pyridin-2-yl)amino)ethyl)-1,2,5-oxadiazole-3-carboxamide]",0.021
19,"COC[C@H](c1ccnc(NC(=O)[C@@H](NC(=O)c2ccnn2C(C)C)C2CCC(F)(F)CC2)c1)N1C[C@@H](C(F)(F)F)NC1=O [Example 203, N-((S)-1-(4,4-difluorocyclohexyl)-2-((4-((S)-2-methoxy-1-((S)-2-oxo-4-(trifluoromethyl)imidazolidin-1-yl)ethyl)pyridin-2-yl)amino)-2-oxoethyl)-1-isopropyl-1H-pyrazole-5-carboxamide]",0.09
20,"O=C(CCC(F)(F)F)NC(c1ccnc(NC(=O)[C@@H](NC(=O)c2nonc2C2CC2)C(C2CC2)C2CC2)c1)C1CC1 (single isomer, unassigned) [Example 40]",0.092
21,"Cc1nonc1C(=O)N[C@H](C(=O)Nc1cc(C(C2CC2)N2C[C@@H](C(F)(F)F)NC2=O)ccn1)C1CCC(F)(F)CC1 (single isomer, unassigned) [Example 164, N-((1S)-2-((4-((R or S)-cyclopropyl((S)-2-oxo-4-(trifluoromethyl)imidazolidin-1-yl)methyl)pyridin-2-yl)amino)-1-(4,4-difluorocyclohexyl)-2-oxoethyl)-4-methyl-1,2,5-oxadiazole-3-carboxamide]",0.035
22,"Cc1cnn(C)c1Cc1ccnc(NC(=O)[C@@H](NC(=O)OC(C)(C)C)[C@H]2CC[C@H](C)CC2)c1 [Example 51, tert-butyl ((S)-2-((4-((1,4-dimethyl-1H-pyrazol-5-yl)methyl)pyridin-2-yl)amino)-1-((1r,4S)-4-methylcyclohexyl)-2-oxoethyl)carbamate]",2.08
23,"Cc1nonc1C(=O)N[C@H](C(=O)Nc1cc(CN2C[C@@H](C(F)(F)F)NC2=O)ccn1)C(C1CC1)C1CC1 [Example 18, N-((S)-1,1-dicyclopropyl-3-oxo-3-((4-(((S)-2-oxo-4-(trifluoromethyl)imidazolidin-1-yl)methyl)pyridin-2-yl)amino)propan-2-yl)-4-methyl-1,2,5-oxadiazole-3-carboxamide]",0.448
24,"COCC(c1ccnc(NC(=O)[C@@H](NC(=O)OC(C)(C)C)[C@H]2CC[C@H](C)CC2)c1)N1C[C@@H](C(F)(F)F)NC1=O (single isomer, unassigned) [Example 65, tert-butyl ((S)-2-((4-((S or R)-2-methoxy-1-((S)-2-oxo-4-(trifluoromethyl)imidazolidin-1-yl)ethyl)pyridin-2-yl)amino)-1-((1r,4S)-4-methylcyclohexyl)-2-oxoethyl)carbamate]",0.522
25,"CCc1nonc1C(=O)NC(C(=O)Nc1cc(C(CC)NC(=O)CCC(F)(F)F)ccn1)C1CCC(F)(F)CC1 (stereo in doubt) [Example 207, N-((1S)-1-(4,4-difluorocyclohexyl)-2-oxo-2-((4-(1-(4,4,4-trifluorobutan-amido)propyl)pyridin-2-yl)amino)ethyl)-4-ethyl-1,2,5-oxadiazole-3-carboxamide]",0.35
26,"CCC[C@H](c1ccnc(NC(=O)C(NC(=O)c2nocc2CC)C2CCC(F)(F)CC2)c1)N1C[C@@H](C(F)(F)F)NC1=O (stereo in doubt) [Example 158, N—((S)-1-(4,4-difluorocyclohexyl)-2-oxo-2-((4-((R)-1-((S)-2-oxo-4-(trifluoromethyl)imidazolidin-1-yl)butyl)pyridin-2-yl)amino)ethyl)-4-ethylisoxazole-3-carboxamide]",0.018
